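Compound exposure: 48 hours, 5 concentrations, 96-well plates. GI50 marks 50% less growth.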 Active and inactive are the calls of the source. Cut-off read from the data, not from the text of the source: active = GI50 up to about 1.1 µM and inactive = higher.
What was measured:
Experiment in all cases: NCI anticancer screen, dose series, 48 h
HL-60 = system: HL-60
MOLT-4 = system: MOLT-4
OVCAR-3 = system: OVCAR-3
A498 = system: A498
IGROV-1 = system: IGROV-1
U-251 = system: U-251
EKVX = system: EKVX
K562 = system: K562
786-0 = system: 786-0
HCT-116 = system: HCT-116
M14 = system: M14
RXF 393 = system: RXF 393
A549 = system: A549
NCI-H460 = system: NCI-H460
HCC 2998 = system: HCC 2998
OVCAR-4 = system: OVCAR-4
SN12C = system: SN12C
SNB-75 = system: SNB-75

Measured: GI50

CC(=O)CC(=O)Nc1ccc(OS(N)(=O)=O)cc1
inactive: HL-60 > 100 µM | MOLT-4 > 100 µM | OVCAR-3 > 100 µM | A498 > 100 µM | IGROV-1 > 100 µM | U-251 > 100 µM | EKVX > 100 µM | K562 > 100 µM | 786-0 > 100 µM | HCT-116 > 100 µM | M14 > 100 µM | RXF 393 > 100 µM | A549 > 100 µM | NCI-H460 > 100 µM | HCC 2998 > 100 µM | OVCAR-4 > 100 µM | SN12C > 100 µM | SNB-75 > 100 µM

CC(=O)OCc1c2ccccc2c(C)c2c1cc(F)c1ccccc12
inactive: HL-60 23 µM | MOLT-4 7.74 µM | OVCAR-3 22.9 µM | A498 39 µM | IGROV-1 22.5 µM | U-251 23.7 µM | EKVX 34.4 µM | K562 21.2 µM | 786-0 30.1 µM | HCT-116 31.3 µM | M14 34 µM | RXF 393 25.6 µM | A549 32.4 µM | HCC 2998 25.9 µM | OVCAR-4 24.2 µM | SN12C 15.1 µM | SNB-75 22.9 µM

COC(=O)C(=O)C(CC(=O)Nc1cc(Cl)ccc1Cl)C(=O)OC (configuration not stated)
inactive: HL-60 > 100 µM | MOLT-4 > 100 µM | OVCAR-3 > 100 µM | A498 > 100 µM | IGROV-1 > 100 µM | U-251 > 100 µM | EKVX > 100 µM | K562 > 100 µM | 786-0 > 100 µM | HCT-116 > 100 µM | M14 > 100 µM | RXF 393 > 100 µM | A549 > 100 µM | NCI-H460 > 100 µM | HCC 2998 > 100 µM | OVCAR-4 > 100 µM | SN12C > 100 µM | SNB-75 > 100 µM

CC(=S)NNC(=O)c1ccncc1
inactive: HL-60 > 100 µM | MOLT-4 > 100 µM | OVCAR-3 > 100 µM | A498 > 100 µM | IGROV-1 > 100 µM | U-251 > 100 µM | EKVX > 100 µM | K562 > 100 µM | 786-0 > 100 µM | HCT-116 > 100 µM | M14 > 100 µM | RXF 393 > 100 µM | A549 > 100 µM | NCI-H460 > 100 µM | HCC 2998 > 100 µM | OVCAR-4 > 100 µM | SN12C > 100 µM | SNB-75 > 100 µM

Cc1ccc(S(=O)OC23CC4CC(CC(C4)C2)C3)cc1 (configuration not stated)
inactive: HL-60 19.4 µM | MOLT-4 29.9 µM | OVCAR-3 > 100 µM | A498 > 100 µM | IGROV-1 29.4 µM | U-251 36.8 µM | EKVX > 100 µM | K562 > 100 µM | 786-0 > 100 µM | HCT-116 > 100 µM | M14 > 100 µM | RXF 393 70.1 µM | A549 > 100 µM | NCI-H460 > 100 µM | HCC 2998 > 100 µM | OVCAR-4 > 100 µM | SN12C > 100 µM | SNB-75 69.5 µM

CC(CC[C@@H](C)C1CCC2[C@@H]3CC(O)C4CC(O)[C@@H](O)C[C@]4(C)C3CC[C@@]21C)C(C)(C)C (some centres not stated)
inactive: HL-60 > 100 µM | MOLT-4 > 100 µM | OVCAR-3 > 100 µM | A498 > 100 µM | IGROV-1 > 100 µM | U-251 > 100 µM | EKVX > 100 µM | K562 > 100 µM | 786-0 > 100 µM | HCT-116 > 100 µM | M14 > 100 µM | RXF 393 > 100 µM | A549 > 100 µM | NCI-H460 > 100 µM | HCC 2998 > 100 µM | OVCAR-4 > 100 µM | SN12C > 100 µM | SNB-75 > 100 µM

Source: ChEMBL document CHEMBL1201862, “PubChem BioAssay data set” (2004)
